According to BindingDB's records for doi:10.1021/jm00104a010 (University of Illinois At Chicago, 1992):

These compounds were tested against Reverse transcriptase (Human immunodeficiency virus 2) (assay: Inhibition of purified HIV-2 reverse transcriptase).

O=C(O)CCCCCCCCC(=O)Nc1cc(S(=O)(=O)O)cc2cc(S(=O)(=O)O)cc(O)c12 and O=C(CCCCCCCCC(=O)Nc1cc(S(=O)(=O)O)cc2cc(S(=O)(=O)O)cc(O)c12)Nc1cc(S(=O)(=O)O)cc2cc(S(=O)(=O)O)cc(O)c12 are within 1.5-fold of each other in IC50: 170 µM for the first, 122 µM for the second.

Nc1c(S(=O)(=O)O)cc2cc(S(=O)(=O)O)cc(O)c2c1O and O=C(O)c1cc(NS(=O)(=O)c2ccc(-c3ccc(S(=O)(=O)Nc4cc(C(=O)O)c(O)c(S(=O)(=O)O)c4)cc3)cc2)cc(S(=O)(=O)O)c1O are within 1.5-fold of each other in IC50: 452 µM for the first, 478 µM for the second.
